In patent US12606552B2, “Bifunctional compound, preparation method therefor, and use thereof” (SUZHOU KINTOR PHARMACEUTICALS, INC., priority 2020, dated 2026):

These compounds were tested against T1, AR (Homo sapiens, UniProt P10275, T878A) (assay: Effects of compounds on AR expression in LNCaP cells (ELISA, DC50)). Conditions: 24 hours of drug treatment, AR by ELISA.
T1 sequence (P10275 1-920 T878A): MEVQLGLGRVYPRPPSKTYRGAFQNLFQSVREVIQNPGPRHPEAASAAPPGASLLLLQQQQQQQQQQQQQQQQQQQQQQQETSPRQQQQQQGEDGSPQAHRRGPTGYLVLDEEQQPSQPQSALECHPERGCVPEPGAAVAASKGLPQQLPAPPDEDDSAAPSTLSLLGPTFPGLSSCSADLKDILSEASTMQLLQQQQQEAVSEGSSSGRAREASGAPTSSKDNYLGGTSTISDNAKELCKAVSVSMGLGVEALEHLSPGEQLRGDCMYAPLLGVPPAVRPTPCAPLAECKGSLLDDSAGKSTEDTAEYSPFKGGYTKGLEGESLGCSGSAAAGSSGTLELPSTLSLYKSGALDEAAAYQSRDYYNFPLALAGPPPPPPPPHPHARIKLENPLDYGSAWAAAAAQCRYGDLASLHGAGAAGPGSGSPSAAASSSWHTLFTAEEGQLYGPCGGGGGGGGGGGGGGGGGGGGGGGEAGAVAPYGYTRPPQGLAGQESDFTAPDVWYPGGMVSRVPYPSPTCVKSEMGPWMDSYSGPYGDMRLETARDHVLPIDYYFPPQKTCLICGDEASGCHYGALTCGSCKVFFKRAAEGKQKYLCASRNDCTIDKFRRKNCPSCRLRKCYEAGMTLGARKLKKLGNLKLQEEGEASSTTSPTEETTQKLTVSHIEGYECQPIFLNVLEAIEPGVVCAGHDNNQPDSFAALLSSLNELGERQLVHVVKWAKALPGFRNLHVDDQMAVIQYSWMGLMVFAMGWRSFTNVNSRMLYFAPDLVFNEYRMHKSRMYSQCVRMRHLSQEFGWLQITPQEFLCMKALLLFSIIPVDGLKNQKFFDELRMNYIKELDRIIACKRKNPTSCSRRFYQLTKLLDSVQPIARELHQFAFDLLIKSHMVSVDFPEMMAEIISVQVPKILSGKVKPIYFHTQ
Format: cell-based
Parameters: Measurement of the Effects of Drugs on the Expression of AR in Cells by ELISA Method; endogenous in cells; host or cells: LNCaP
Procedure, shortened: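 LNCaP cells at about 15,000/well were treated for 24 h with compound at 0.0001–2 μmol/L final. AR in cell lysates was measured by ELISA (OD450). Inhibition was relative to DMSO control after blank subtraction, and DC50 was calculated from it.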

Point of comparison: `Cc1ncsc1-c1c[nH]c([C@@H]2C[C@@H](O)CN2C(=O)[C@@H](NC(=O)COCCCCOc2ccc(-c3ncc(N4C(=S)N(c5ccc(C#N)c(C(F)(F)F)c5F)C(=O)C4(C)C)cc3F)c(C(F)(F)F)c2)C(C)(C)C)n1` [Compound A165], DC50 43.8 nM. Against it:
- CC(=O)O[C@@H]1C[C@@H](C(=O)NCc2ccc(-c3scnc3C)cc2)N(C(=O)[C@@H](NC(=O)COCCCCOc2ccc(-c3ncc(N4C(=S)N(c5ccc(C#N)c(C(F)(F)F)c5F)C(=O)C4(C)C)cc3F)c(C(F)(F)F)c2)C(C)(C)C)C1 [Compound A146] — 5.9-fold higher, 259 nM
- Cc1ncsc1-c1ccc(CNC(=O)[C@@H]2C[C@@H](O)CN2C(=O)[C@@H](NC(=O)COCCC(F)COc2ccc(-c3ncc(N4C(=S)N(c5ccc(C#N)c(C(F)(F)F)c5F)C(=O)C4(C)C)cc3F)cc2F)C(C)(C)C)cc1 (some centres unmarked) [Compound A147] — 1.9-fold higher, 84.9 nM
- Cc1ncsc1-c1ccc([C@H](C)NC(=O)[C@@H]2C[C@@H](O)CN2C(=O)[C@@H](NC(=O)COCCC(F)COc2c(F)cc(-c3ncc(N4C(=S)N(c5ccc(C#N)c(C(F)(F)F)c5F)C(=O)C4(C)C)cc3F)cc2F)C(C)(C)C)cc1 (some centres unmarked) [Compound A149] — 2.5-fold higher, 111 nM
- Cc1ncsc1-c1ccc(CNC(=O)[C@@H]2C[C@@H](O)CN2C(=O)[C@@H](NC(=O)COCC(F)C(F)COc2ccc(-c3ncc(N4C(=S)N(c5ccc(C#N)c(C(F)(F)F)c5F)C(=O)C4(C)C)cc3F)cc2F)C(C)(C)C)cc1 (some centres unmarked) [Compound A150] — 2.1-fold higher, 90.6 nM
- CC(=O)O[C@@H]1C[C@@H](C(=O)NCc2ccc(-c3scnc3C)cc2)N(C(=O)[C@@H](NC(=O)COCCCCOc2c(F)cc(-c3ncc(N4C(=S)N(c5ccc(C#N)c(C(F)(F)F)c5F)C(=O)C4(C)C)cc3F)cc2F)C(C)(C)C)C1 [Compound A152] — 3.8-fold higher, 167 nM
- Cc1ncsc1-c1ccc(CNC(=O)[C@@H]2C[C@@H](O)CN2C(=O)[C@@H](NC(=O)COCC(F)C(F)COc2ccc(-c3ncc(N4C(=S)N(c5ccc(C#N)c(C(F)(F)F)c5F)C(=O)C4(C)C)cc3F)c(C(F)(F)F)c2)C(C)(C)C)cc1 (some centres unmarked) [Compound A154] — within 1.5-fold, 37.6 nM
- Cc1ncsc1-c1ccc(CNC(=O)[C@@H]2C[C@@H](O)CN2C(=O)[C@@H](NC(=O)COCC(F)CCOc2ccc(-c3ncc(N4C(=S)N(c5ccc(C#N)c(C(F)(F)F)c5F)C(=O)C4(C)C)cc3F)cc2F)C(C)(C)C)cc1 (some centres unmarked) [Compound A159] — 3.8-fold higher, 168 nM
- Cc1ncsc1-c1c[nH]c([C@@H]2C[C@@H](O)CN2C(=O)[C@@H](NC(=O)COCCCCOc2ccc(-c3ncc(N4C(=S)N(c5ccc(C#N)c(C(F)(F)F)c5F)C(=O)C4(C)C)cc3F)cc2F)C(C)(C)C)n1 [Compound A160] — 3.4-fold higher, 151 nM
- Cc1ncsc1-c1ccc(CNC(=O)[C@@H]2C[C@@H](O)CN2C(=O)[C@@H](NC(=O)COCC(F)(F)CCOc2ccc(-c3ncc(N4C(=S)N(c5ccc(C#N)c(C(F)(F)F)c5F)C(=O)C4(C)C)cc3F)cc2F)C(C)(C)C)cc1 [Compound A162] — 4.2-fold higher, 186 nM
- Cc1ncsc1-c1ccc(CNC(=O)[C@@H]2C[C@@H](O)CN2C(=O)[C@@H](NC(=O)COCCC(F)(F)COc2ccc(-c3ncc(N4C(=S)N(c5ccc(C#N)c(C(F)(F)F)c5F)C(=O)C4(C)C)cc3F)cc2F)C(C)(C)C)cc1 [Compound A163] — 3.9-fold higher, 171 nM
- Cc1ncsc1-c1ccc(CNC(=O)[C@@H]2C[C@@H](O)CN2C(=O)[C@@H](NC(=O)COCC(F)CCOc2ccc(-c3ncc(N4C(=S)N(c5ccc(C#N)c(C(F)(F)F)c5F)C(=O)C4(C)C)cc3F)c(C(F)(F)F)c2)C(C)(C)C)cc1 (some centres unmarked) [Compound A166] — 3.3-fold higher, 144 nM
- Cc1ncsc1-c1ccc(CNC(=O)[C@@H]2C[C@@H](O)CN2C(=O)[C@@H](NC(=O)COCCC(F)(F)COc2ccc(-c3ncc(N4C(=S)N(c5ccc(C#N)c(C(F)(F)F)c5F)C(=O)C4(C)C)cc3F)c(C(F)(F)F)c2)C(C)(C)C)cc1 [Compound A167] — 4.7-fold higher, 204 nM
- Cc1ncsc1-c1ccc(CNC(=O)[C@@H]2C[C@@H](O)CN2C(=O)[C@@H](NC(=O)COCC(F)(F)CCOc2ccc(-c3ncc(N4C(=S)N(c5ccc(C#N)c(C(F)(F)F)c5F)C(=O)C4(C)C)cc3F)c(C(F)(F)F)c2)C(C)(C)C)cc1 [Compound A168] — 3.6-fold higher, 159 nM
- Cc1ncsc1-c1ccc(CNC(=O)[C@@H]2C[C@@H](O)CN2C(=O)[C@@H](NC(=O)COCC(F)C(F)COc2ccc(-c3ccc(N4C(=S)N(c5ccc(C#N)c(C(F)(F)F)c5F)C(=O)C4(C)C)cn3)cc2)C(C)(C)C)cc1 (some centres unmarked) [Compound A169] — 2.1-fold higher, 92.6 nM
- Cc1ncsc1-c1ccc(CNC(=O)[C@@H]2C[C@@H](O)CN2C(=O)[C@@H](NC(=O)COCCCCNC(=O)/C=C/c2ccc(N3C(=S)N(c4ccc(C#N)c(C(F)(F)F)c4F)C(=O)C3(C)C)cn2)C(C)(C)C)cc1 [Compound A170] — 22-fold higher, 946 nM
- Cc1ncsc1-c1ccc(CNC(=O)[C@@H]2C[C@@H](O)CN2C(=O)[C@@H](NC(=O)COCC(F)CCOc2ccc(-c3ccc(N4C(=S)N(c5ccc(C#N)c(C(F)(F)F)c5F)C(=O)C4(C)C)cn3)cc2)C(C)(C)C)cc1 (some centres unmarked) [Compound A171] — 1.8-fold higher, 80.2 nM
- Cc1cc(C(C(=O)N2C[C@H](O)C[C@H]2C(=O)N[C@@H](CC(=O)NCCCOc2ccc(-c3ncc(N4C(=S)N(c5ccc(C#N)c(C(F)(F)F)c5F)C(=O)C4(C)C)cc3F)cc2F)c2ccc(-c3scnc3C)cc2)C(C)C)on1 (some centres unmarked) [Compound A172] — 3.9-fold higher, 170 nM
- Cc1cc(C(C(=O)N2C[C@H](O)C[C@H]2C(=O)N[C@@H](CC(=O)N2CCC(C#Cc3ccc(N4C(=S)N(c5ccc(C#N)c(C(F)(F)F)c5F)C(=O)C4(C)C)cn3)CC2)c2ccc(-c3scnc3C)cc2)C(C)C)on1 (some centres unmarked) [Compound A173] — 1.8-fold higher, 78.1 nM
- Cc1ncsc1-c1ccc(CNC(=O)[C@@H]2C[C@@H](O)CN2C(=O)[C@@H](NC(=O)COCC(F)(F)CCOc2ccc(-c3ccc(N4C(=S)N(c5ccc(C#N)c(C(F)(F)F)c5F)C(=O)C4(C)C)cn3)cc2)C(C)(C)C)cc1 [Compound A175] — 2.8-fold higher, 123 nM
- Cc1cc(C(C(=O)N2C[C@H](O)C[C@H]2C(=O)N[C@@H](CC(=O)N2CCC(C#Cc3ccc(N4C(=S)N(c5ccc(C#N)c(C(F)(F)F)c5F)C(=O)C4(C)C)cc3)CC2)c2ccc(-c3scnc3C)cc2)C(C)C)on1 (some centres unmarked) [Compound A176] — within 1.5-fold, 62.1 nM
- Cc1cc(C(C(=O)N2C[C@H](O)C[C@H]2C(=O)N[C@@H](CC(=O)NCCCCCCOc2ccc(-c3ncc(N4C(=S)N(c5ccc(C#N)c(C(F)(F)F)c5F)C(=O)C4(C)C)cc3F)cc2F)c2ccc(-c3scnc3C)cc2)C(C)C)on1 (some centres unmarked) [Compound A177] — 5.8-fold higher, 253 nM
- Cc1cc(C(C(=O)N2C[C@H](O)C[C@H]2C(=O)N[C@@H](CC(=O)N2CCC(Oc3ccc(-c4ncc(N5C(=S)N(c6ccc(C#N)c(C(F)(F)F)c6F)C(=O)C5(C)C)cc4F)cc3F)CC2)c2ccc(-c3scnc3C)cc2)C(C)C)on1 (some centres unmarked) [Compound A178] — 2.1-fold higher, 90.5 nM
- CC1(C)C(=O)N(c2ccc(C#N)c(C(F)(F)F)c2F)C(=S)N1c1cnc(-c2ccc(OC3CCN(C(=O)COc4ccc5c(c4)C(=O)N(C4CCC(=O)NC4=O)C5=O)CC3)cc2C(F)(F)F)c(F)c1 (centres unmarked) [Compound A180] — 19-fold higher, 840 nM
- Cc1cc(C(C(=O)N2C[C@H](O)C[C@H]2C(=O)N[C@@H](CC(=O)N2CCC(Oc3ccc(-c4ncc(N5C(=S)N(c6ccc(C#N)c(C(F)(F)F)c6F)C(=O)C5(C)C)cc4F)c(C(F)(F)F)c3)CC2)c2ccc(-c3scnc3C)cc2)C(C)C)on1 (some centres unmarked) [Compound A183] — 3.4-fold higher, 151 nM
- Cc1cc(C(C(=O)N2C[C@H](O)C[C@H]2C(=O)N[C@@H](CC(=O)NCCN2CCC(C#Cc3ccc(N4C(=S)N(c5ccc(C#N)c(C(F)(F)F)c5F)C(=O)C4(C)C)cc3)CC2)c2ccc(-c3scnc3C)cc2)C(C)C)on1 (some centres unmarked) [Compound A184] — 8.4-fold higher, 370 nM
